Experimental data published in patent US4329347A, “Cardiotonic and antithrombotic sulfur-containing derivatives of carbostyril” (Boehringer Ingelheim GmbH, priority 1978, dated 1982).
Like-named read-outs stand apart in the source and are kept apart here.

How the values were obtained:
[1] = system: Platelet Thromboses in the Rat; assay: Influence on platelet thromboses in the rat (electrical irritation of a vein); assay type: in vivo; conditions: male rats, five animals per dose, 20 minutes observation, vs. untreated group; dose not given
Procedure: Literature: H. Poliwoda, J. Lilli, G. Hagemann, D. Schyma: Z. ges. exp. Med., 145, 252 (1968)
Male rats (body weight between 70 and 90 grams) received an intraperitoneal Nembutal anesthesia (dose: 50 to 60 mg/kg). To avoid hypothermia, they were positioned on a heated test table (about 37° C.). The respiratory passage was held free by insertion of a tracheal cannula.
After a transverse abdominal incision was made, an intestinal loop was exposed and fixed, and a vein, with a diameter of about 300 μ was prepared. A monopolar platinum electrode embedded in glass and having a tip diameter of about 100μ was applied to the vein as an irritating cathode. The indifferent electrode was applied to the same vessel opposite the cathode. The irritation was provoked by 150 volts of direct current for a period of 100 milliseconds. After the irritation, the area of observation was continuously rinsed with warm (37° C.) physiological salt solution.
The formation and growth of the thrombosis was followed under a binocular microscope over a time period of 20 minutes. During the entire period of observation, the percentage of the vessel volume closed by the thrombosis was estimated at different time intervals.
Five animals per dose were used, and the results were averaged.
In the test compound experiments, the average size of the thrombosis in the treated animal group was compared with that of an untreated animal group. The result was given as "percentage reduction of the average thrombosis size." The following table contains the values obtained.

[2] = system: phosphodiesterase (PDE), supernatant of human blood platelets; assay: PDE inhibition (3H-cAMP hydrolysis); assay type: biochemical; conditions: human blood platelet PDE, 1 μmol/liter 3H-cAMP, pH 7.4, 15 minutes, 37° C.
Procedure: cAMP is hydrolysed to AMP by phosphodiesterase (PDE) from various sources, including blood platelets. This hydrolysis is inhibited by PDE inhibitors according to the concentration.
The phosphodiesterase used was the 10,000×g supernatant of human blood platelets which had been frozen with water and thawed out again.
An amount of 0.3 ml of a mixture which contained 0.1 mole/liter of trihydroxy-aminomethane (pH 7.4), 3 mmole/liter of magnesium chloride, 1 mmole/liter of AMP, 1 μmol/liter of ^3 H-cAMP (specific activity about 10 MBq/μmol), PDE as well as the substance to be tested and water for the control were incubated for 15 minutes at 37° C.
The incubation was stopped by the addition of 0.5 ml of zinc sulfate (0.266 mole/liter) and 0.5 ml of barium hydroxide (0.266 mole/liter), the precipitate was centrifuged and the activity remaining in the supernatant of the unreacted ^3 H-cAMP was determined. From a comparison of the substance preparations and the control preparations, the concentration for a 50% inhibiting activity (IC50) of the respective substance was calculated.

[3] = system: conscious mice; assay: Prolongation of the bleeding time (mouse tail); assay type: in vivo; conditions: po, 10 mg/kg orally, after 1 hour, compared to control group, read-out: Prolongation of the bleeding time in % after one hour
Procedure: The function of the thrombocytes can be determined by measuring the bleeding time. The normal bleeding time in human beings is in the range of 1 to 3 minutes and needs intact thrombozytes in a sufficient number. If the number of thrombocytes is normal and the bleeding time is prolonged, this signifies a disturbed function of the thrombocytes. This is found in some congenital defects of thrombocyte function (V. Willebrand's disease, for example). If, on the other hand it is the aim to prevent spontaneous aggregation of the thrombocytes and occlusion in the arterial system by antithrombotic drugs, the bleeding time should be prolonged as a consequence. Therefore, using antithrombotic substances, a prolongation of the bleeding time is expected. If the plasma coagulation system is not influenced by such a medicine, coagulation tests will give a normal result.
To measure the bleeding time, 10 mg/kg of the test compound is administered orally to conscious mice. After 1 hour, 0.5 mm of the tip of the mousetail is cut off and droplets of blood are gently removed with filter paper every 30 second. The number of drops of blood give a measure for the bleeding time (5 animals/experiment).
The numbers in the following table represent the prolongation in % compared to the control group.

[4] = Acute toxicity, oral; assay type: in vivo; conditions: mouse, in vivo; mice, single oral dose, 14 days observation; read-out: Acute Toxicity per os
Procedure: (§1) The acute toxicity of the test compounds was determined on groups of 10 mice each after oral administration of a single dose of 1,000 mg/kg (observation time: 14 days).

[5] = system: mice; assay: Acute toxicity, oral; assay type: in vivo; conditions: single oral dose of 1,000 mg/kg, 14 days observation
Procedure: as §1

[6] = system: thrombocyte aggregation in platelet-rich plasma of healthy human donors; assay: Thrombocyte aggregation inhibiting activity by the method of Born and Cross (platelet-rich plasma); assay type: cell-based; conditions: optical density
Procedure: 1. Determination of the thrombocyte aggregation inhibiting activity by the method of Born and Cross [J. Physiol. 170, 397 (1964)]:
The thrombocyte aggregation was measured in the platelet-rich plasma of healthy human donors. The decrease in optical density was measured and recorded photometrically after the addition of adenosine diphosphate or collagen. From the angle of inclination of the density curve, the rate of aggregation was estimated (Vmax). The optical density was taken as the point on the curve where the most light was transmitted (O.D.).
The EC50 values in the tables indicate the optical density.
Small doses of collagen were chosen, but sufficient to give irreversible aggregation. To provoke maximum aggregation, about 0.01 ml of the collagen solution was added to 1 ml of platelet-rich plasma. (Commercial collagen of Hormonchemie, Munich). The adenosine diphosphate (ADP) doses were chosen to give only the first phase of the BORN curve. The necessary amount of ADP was about 1×10^-6 mol/l. Commercial ADP of Boehringer Mannheim was used.
The substance dose which produced a 50% inhibition of the thrombozytes aggregation (EC50) was determined graphically.

[7] = ADP-induced (about 1×10^-6 mol/l), read-out: EC50 (50% inhibition of thrombocyte aggregation), ADP
[8] = collagen-induced, read-out: EC50 (50% inhibition of thrombocyte aggregation), Collagen

| Structure (SMILES) | Percentage Reduction of the Average Thrombosis Size [1] [%] | IC50 [2] [nM] | change in vivo at 10 mg/kg [3] [%] | LD50 at 336 h [4] [mg/kg] | animals died (acute toxicity per os) [5] | EC50 [6, 7] [nM] | EC50 [6, 8] [nM] |
| --- | --- | --- | --- | --- | --- | --- | --- |
| O=c1ccc2cc(OCCCC[S+]([O-])c3ccc(C4CCCCC4)cc3)ccc2[nH]1 (stereo not drawn) [DD, 6-[4-(4-Cyclohexylphenylsulfinyl)-butoxy]-carbostyril] | 11 | 40 | – | – | – | – | – |
| CC(C)(C)c1cc([S+]([O-])CCCCOc2ccc3[nH]c(=O)ccc3c2)cc(C(C)(C)C)c1O (stereo not drawn) [O, 6-[4-(4-Hydroxy-3,5-di-tert. butylphenyl-sulfinyl)-butoxy]-carbostyril] | 17 | 79 | 73 | > 1000 | 0 out of 10 animals | 500 | 200 |
| O=C1CCc2cc(OCCCCSc3ccccn3)ccc2N1 [D, 6-[4-(2-Pyridyl-mercapto)-butoxy]-3,4-dihydro-carbostyril] | – | 1600 | 76 | > 1000 | 0 out of 10 animals | > 100000 | 45000 |
| O=C1CCc2cc(OCCCCS(=O)(=O)c3ccc(Cl)c(Cl)c3)ccc2N1 [R, 6-[4-(3,4-Dichlorophenyl-sulfonyl)-butoxy]-3,4-dihydro-carbostyril] | – | 1800 | 30 | > 1000 | 0 out of 10 animals | 25000 | 1500 |
| O=c1ccc2cc(OCCCC[S+]([O-])C3CCCCC3)ccc2[nH]1 (stereo not drawn) [X, 6-(4-Cyclohexylsulfinyl-butoxy)-carbostyril] | – | 700 | – | – | – | – | – |
| Nc1c(Br)cc([S+]([O-])CCCCOc2ccc3c(c2)CCC(=O)N3)cc1Br (stereo not drawn) [AA, 6-[4-(3,5-Dibromo-4-aminophenylsulfinyl)-butoxy]-3,4-dihydrocarbostyril] | – | 250 | – | – | – | – | – |
| Cc1cc(=O)[nH]c2ccc(OCCCC[S+]([O-])c3ccccn3)cc12 (stereo not drawn) [KK, 4-Methyl-6-[4-(2-pyridylsulfinyl)-butoxy]-carbostyril] | 17 | – | – | – | – | – | – |
| O=C1CCc2cc(OCCCC[S+]([O-])c3ccc(C4CCCCC4)cc3)ccc2N1 (stereo not drawn) [CC, 6-[4-(4-Cyclohexylphenylsulfinyl)-butoxy]-3,4-dihydro-carbostyril] | – | 1600 | – | – | – | – | – |
| O=C1CCc2cccc(OCCCCSc3ccccc3)c2N1 [II, 8-(4-Phenylmercapto-butoxy)-3,4-dihydro-carbostyril] | 4 | – | – | – | – | – | – |
| CC(C)(C)[S+]([O-])CCCCOc1ccc2c(c1)CCC(=O)N2 (stereo not drawn) [HH, 6-(4-tert.Butylsulfinyl-butoxy)-3,4-dihydrocarbostyril] | 19 | – | – | – | – | – | – |
| O=c1ccc2cc(OCCCC[S+]([O-])c3ccc(Cl)c(Cl)c3)ccc2[nH]1 (stereo not drawn) [P, 6-[4-(3,4-Dichlorophenyl-sulfinyl)-butoxy]-carbostyril] | 15 | 220 | 12 | > 1000 | 0 out of 10 animals | 1800 | 200 |
| O=C1CCc2cc(OCC[S+]([O-])c3ccccc3)ccc2N1 (stereo not drawn) [G, 6-(2-Phenylsulfinyl-ethoxy)-3,4-dihydro-carbostyril] | – | 3400 | 5 | > 1000 | 0 out of 10 animals | 17000 | 3500 |
| O=C1CCc2cc(OCCCC[S+]([O-])Cc3ccccc3)ccc2N1 (stereo not drawn) [H, 6-(4-Benzylsulfinyl-butoxy)-3,4-dihydro-carbostyril] | – | 1600 | 29 | > 1000 | 0 out of 10 animals | 14000 | 2500 |
| Nc1c(Br)cc([S+]([O-])CCCCOc2ccc3[nH]c(=O)ccc3c2)cc1Br (stereo not drawn) [BB, 6-[4-(3,5-Dibromo-4-aminophenylsulfinyl)-butoxy]-carbostyril] | – | 50 | – | – | – | – | – |
| O=c1ccc2cc(OCCCC[S+]([O-])c3ccc(-c4ccccc4)cc3)ccc2[nH]1 (stereo not drawn) [V, 6-[4-(4-Biphenylylsulfinyl)-butoxy]-carbostyril] | – | 120 | – | – | – | – | – |
| O=c1ccc2cc(OCCCC[S+]([O-])c3ccccc3)ccc2[nH]1 (stereo not drawn) [N, 6-(4-Phenylsulfinyl-butoxy)-carbostyril] | 24 | 470 | – | – | – | 3000 | 600 |
| O=c1ccc2c(Br)c(OCCCC[S+]([O-])c3ccccc3)ccc2[nH]1 (stereo not drawn) [Y, 5-Bromo-6-(4-phenylsulfinyl-butoxy)-carbostyril] | – | 100 | – | – | – | – | – |
| O=C1CCc2cc(OCCCC[S+]([O-])C3CCCCC3)ccc2N1 (stereo not drawn) [K, 6-(4-Cyclohexylsulfinyl-butoxy)-3,4-dihydro-carbostyril] | – | 2500 | 12 | > 1000 | 0 out of 10 animals | 12000 | 4500 |
| O=C1CCc2cc(OCCCCSc3ccccc3)ccc2N1 [A, 6-(4-Phenylmercapto-butoxy)-3,4-dihydro-carbostyril] | – | 780 | 145 | > 1000 | 0 out of 10 animals | > 100000 | 50000 |
| CC(C)(C)c1ccc([S+]([O-])CCCCOc2ccc3[nH]c(=O)ccc3c2)cc1 (stereo not drawn) [EE, 6-[4-(4-tert.-Butylphenylsulfinyl)-butoxy]-carbostyril] | – | 30 | – | – | – | – | – |
| O=c1ccc2cc(OCCCC[S+]([O-])c3ccc4ccccc4n3)ccc2[nH]1 (stereo not drawn) [W, 6-[4-(2-Quinolylsulfinyl)-butoxy]-carbostyril] | – | 140 | – | – | – | – | – |
| CN(C(=O)C[S+]([O-])CCOc1ccc2[nH]c(=O)ccc2c1)C1CCCCC1 (stereo not drawn) [Z, 6-[2-(N-Methyl-N-cyclohexyl-carbamidomethyl-sulfinyl)-ethoxy]-carbostyril] | – | 500 | – | – | – | – | – |
| O=c1ccc2cc(OCCCC[S+]([O-])c3ccccn3)ccc2[nH]1 (stereo not drawn) [JJ, 6-[4-(2-Pyridylsulfinyl)-butoxy]-carbostyril] | 29 | – | – | – | – | – | – |
